Test results reported in ChEMBL document CHEMBL3885881, “DrugMatrix”.

Species on record: Rattus norvegicus
Test: DrugMatrix - Regimen: Daily Repeat
Format: toxicity, organism-based, Sprague-Dawley
Parameters: regimen Daily Repeat, gender Male, age 6-8 weeks
Conditions: in vivo, po, route oral GAVAGE, vehicle 100 % WATER; for LACTATE DEHYDROGENASE / LIPASE / PHOSPHORUS / POTASSIUM / SODIUM / TOTAL BILIRUBIN / TOTAL PROTEIN / URIC ACID / ALANINE AMINOTRANSFERASE / ALBUMIN / ALKALINE PHOSPHATASE / ASPARTATE AMINOTRANSFERASE / BLOOD UREA NITROGEN / CARBON DIOXIDE / CHLORIDE / CHOLESTEROL / CREATINE PHOSPHOKINASE / CREATININE / GLUCOSE: tissue Plasma; for ABSOLUTE BASOPHIL / ABSOLUTE EOSINOPHIL / ABSOLUTE LYMPHOCYTE / ABSOLUTE MONOCYTE / ABSOLUTE SEGMENTED NEUTROPHIL / BASOPHIL / EOSINOPHIL / ERYTHROCYTE COUNT / HEMATOCRIT / HEMOGLOBIN / LEUKOCYTE COUNT / LYMPHOCYTE / MEAN CORPUSCULAR HEMOGLOBIN / MEAN CORPUSCULAR HEMOGLOBIN CONCENTRATION / MEAN CORPUSCULAR VOLUME / MONOCYTE / NEUTROPHIL / NUCLEATED RED BLOOD CELLS / PLATELET COUNT: tissue Blood
[1] = 12 mg/kg, 120 h, dose level High, time 5 day
[2] = […], 72 h, dose 9.6 mg/Kg, dose level M1, time 3 day
[3] = […], 120 h, dose 9.6 mg/Kg, dose level M1, time 5 day

COc1ccc2c(c1)c(CC(=O)O)c(C)n2C(=O)c1ccc(Cl)cc1 [INDOMETHACIN]
LACTATE DEHYDROGENASE [1]: 83.5 u/L | LIPASE [1]: 12.5 u/L | PHOSPHORUS [1]: 11.15 mg/dL | POTASSIUM [1]: 5.62 MEQ/L | SODIUM [1]: 146.9 MEQ/L | TOTAL BILIRUBIN [1]: 0.15 mg/dL | TOTAL PROTEIN [1]: 4.7 G/DL | URIC ACID [1]: 0.45 mg/dL | ABSOLUTE BASOPHIL [2]: 0 CELLS/uL | ABSOLUTE EOSINOPHIL [2]: 39.33 CELLS/uL | ABSOLUTE LYMPHOCYTE [2]: 13009.33 CELLS/uL | ABSOLUTE MONOCYTE [2]: 145.33 CELLS/uL | ABSOLUTE SEGMENTED NEUTROPHIL [2]: 3406 CELLS/uL | BASOPHIL [2]: 0% | EOSINOPHIL [2]: 0.33% | ERYTHROCYTE COUNT [2]: 4.19 x10E6/uL | HEMATOCRIT [2]: 26.67% | HEMOGLOBIN [2]: 10.63 G/DL | LEUKOCYTE COUNT [2]: 16.6 x10E3/uL | LYMPHOCYTE [2]: 78.33% | MEAN CORPUSCULAR HEMOGLOBIN [2]: 25.53 pg | MEAN CORPUSCULAR HEMOGLOBIN CONCENTRATION [2]: 40 G/DL | MEAN CORPUSCULAR VOLUME [2]: 63.8 fL | MONOCYTE [2]: 1% | NEUTROPHIL [2]: 20.33% | NUCLEATED RED BLOOD CELLS [2]: 0 /100WBC | PLATELET COUNT [2]: 984.67 x10E3/uL | ALANINE AMINOTRANSFERASE [2]: 50.33 u/L | ALBUMIN [2]: 3.17 G/DL | ALKALINE PHOSPHATASE [2]: 197.33 u/L | ASPARTATE AMINOTRANSFERASE [2]: 77.33 u/L | BLOOD UREA NITROGEN [2]: 13.33 mg/dL | CARBON DIOXIDE [2]: 26 mmol/L | CHLORIDE [2]: 102.67 MEQ/L | CHOLESTEROL [2]: 72.33 mg/dL | CREATINE PHOSPHOKINASE [2]: 564.67 u/L | CREATININE [2]: 0.3 mg/dL | GLUCOSE [2]: 162.33 mg/dL | LACTATE DEHYDROGENASE [2]: 111.33 u/L | LIPASE [2]: 11.67 u/L | PHOSPHORUS [2]: 10.83 mg/dL | POTASSIUM [2]: 5.33 MEQ/L | SODIUM [2]: 141.3 MEQ/L | TOTAL BILIRUBIN [2]: 0.1 mg/dL | TOTAL PROTEIN [2]: 5.07 G/DL | URIC ACID [2]: 1.23 mg/dL | ABSOLUTE BASOPHIL [3]: 0 CELLS/uL | ABSOLUTE EOSINOPHIL [3]: 0 CELLS/uL | ABSOLUTE LYMPHOCYTE [3]: 4773 CELLS/uL | ABSOLUTE MONOCYTE [3]: 34 CELLS/uL | ABSOLUTE SEGMENTED NEUTROPHIL [3]: 943 CELLS/uL | BASOPHIL [3]: 0% | EOSINOPHIL [3]: 0% | ERYTHROCYTE COUNT [3]: 4.33 x10E6/uL | HEMATOCRIT [3]: 26.75% | HEMOGLOBIN [3]: 10.7 G/DL | LEUKOCYTE COUNT [3]: 5.75 x10E3/uL | LYMPHOCYTE [3]: 81% | MEAN CORPUSCULAR HEMOGLOBIN [3]: 24.7 pg | MEAN CORPUSCULAR HEMOGLOBIN CONCENTRATION [3]: 40 G/DL | MEAN CORPUSCULAR VOLUME [3]: 61.75 fL | MONOCYTE [3]: 0.5% | NEUTROPHIL [3]: 18.5% | NUCLEATED RED BLOOD CELLS [3]: 1 /100WBC | PLATELET COUNT [3]: 1266.5 x10E3/uL | ALANINE AMINOTRANSFERASE [3]: 53.5 u/L | ALBUMIN [3]: 3 G/DL | ALKALINE PHOSPHATASE [3]: 320 u/L | ASPARTATE AMINOTRANSFERASE [3]: 129 u/L | BLOOD UREA NITROGEN [3]: 45 mg/dL | CARBON DIOXIDE [3]: 33 mmol/L | CHLORIDE [3]: 92.5 MEQ/L | CHOLESTEROL [3]: 60.5 mg/dL | CREATINE PHOSPHOKINASE [3]: 215 u/L | CREATININE [3]: 0.32 mg/dL | GLUCOSE [3]: 131 mg/dL | LACTATE DEHYDROGENASE [3]: 112.5 u/L | LIPASE [3]: 24.5 u/L | PHOSPHORUS [3]: 11.45 mg/dL | POTASSIUM [3]: 5.66 MEQ/L | SODIUM [3]: 139.9 MEQ/L | TOTAL BILIRUBIN [3]: 0.15 mg/dL | TOTAL PROTEIN [3]: 5.8 G/DL | URIC ACID [3]: 1.05 mg/dL
